Experimental data taken from a compilation of properties of binary mixtures (doi:10.1007/s10953-017-0695-7).

Assay: xn = mol fraction of the nth substance listed
Conditions: 101 kPa

CCCCCO + CCCCCC[n+]1ccn(C)c1.[Cl-]
x1 = 1
Conditions	viscosity [mPa·s]
293.15 K	3.99
313.15 K	2.29
323.15 K	1.79
333.15 K	1.39

OCCO + CCCCCC[n+]1ccn(C)c1.[Cl-]
x1 = 1
Conditions	viscosity [mPa·s]
293.15 K	21.35
303.15 K	14.1
313.15 K	9.74
323.15 K	7.02
333.15 K	5.2

CCCCCC[n+]1ccn(C)c1.[Cl-] + CCCCCO
viscosity [mPa·s]
Conditions	293.15 K	303.15 K	313.15 K	323.15 K	333.15 K
x1 = 0.0042	4.14	–	–	1.85	1.46
x1 = 0.0088	–	3.23	2.49	1.92	1.54
x1 = 0.0166	4.56	–	2.62	2.03	1.61
x2 = 0	11400	4206	1718	–	398
x2 = 0.1514	3550	–	803	418	192.5
x2 = 0.2971	1014	491	–	148.2	91
x2 = 0.5018	182.4	108.3	68.1	44.92	31.33
x2 = 0.6066	75.1	48.8	32.87	23.14	16.9
x2 = 0.7018	31.71	22.14	16.01	11.88	–
x2 = 0.8012	14.74	10.86	–	–	4.99
x2 = 0.849	–	7.85	6.03	4.68	3.76
x2 = 0.8825	8.5	6.37	4.92	3.87	3.06
x2 = 0.9494	5.73	4.29	3.28	2.56	2.02
x2 = 0.9749	4.83	3.63	2.81	2.17	1.71
